Source: US8754073B2, “Substituted piperazino-dihydrothienopyrimidines” (Boehringer Ingelheim International GmbH, priority 2007, dated 2014)
Structures can show the parent of a compound that is named as a salt.

What follows are compounds tested against PDE4B (Homo sapiens, UniProt Q07343) (assay: Scintillation Proximity Assay (SPA) of PDE4B enzyme activity ([H3]-cAMP cleavage)). Conditions: test substance 1 μM; one-hour incubation of [H3]-cAMP with PDE4B enzyme at 30° C.
Assay type: biochemical
Description: The inhibitions (in %) at 1 μM of the individual Example substances are given in the following Table of Examples and were determined as follows:
The Scintillation Proximity Assay (SPA) (GE Healthcare, No. TRKQ7090) was carried out by using the different affinities of cyclic 3′-5′-adenosinemonophosphate (cAMP, low affinity) and linear 5′-adenosinemonophosphate (AMP, high affinity) for yttrium silicate scintillator beads. The cAMP specific phosphodiesterase (PDE) PDE4B cleaves the 3′-phosphoester bond of tritium-labelled [H3]-cAMP to form [H3]-5′-AMP. This [H3]-AMP accumulates on the scintillator beads because of its higher affinity for them and causes scintillation events (flashes of light) which are measured in a Wallac Microbeta Scintillation Counter.
The experiment starts with a one-hour incubation of [H3]-cAMP with the PDE4B enzyme in assay buffer at 30° C., in each case once with the Example substance to be tested (in a concentration of 1 μM) and once without the Example substance to be tested.
After this incubation, the reaction is stopped by the addition of the beads. The beads have an opportunity to settle in the next 45 minutes, then the measurement is carried out in the Scintillation Counter. If the substance is capable of inhibiting the enzymatic activity of the PDE4B, less [H3]-AMP is produced during the incubation phase and fewer scintillation events can be measured.

Sequence of PDE4B (Q07343 whole entry, species assumed): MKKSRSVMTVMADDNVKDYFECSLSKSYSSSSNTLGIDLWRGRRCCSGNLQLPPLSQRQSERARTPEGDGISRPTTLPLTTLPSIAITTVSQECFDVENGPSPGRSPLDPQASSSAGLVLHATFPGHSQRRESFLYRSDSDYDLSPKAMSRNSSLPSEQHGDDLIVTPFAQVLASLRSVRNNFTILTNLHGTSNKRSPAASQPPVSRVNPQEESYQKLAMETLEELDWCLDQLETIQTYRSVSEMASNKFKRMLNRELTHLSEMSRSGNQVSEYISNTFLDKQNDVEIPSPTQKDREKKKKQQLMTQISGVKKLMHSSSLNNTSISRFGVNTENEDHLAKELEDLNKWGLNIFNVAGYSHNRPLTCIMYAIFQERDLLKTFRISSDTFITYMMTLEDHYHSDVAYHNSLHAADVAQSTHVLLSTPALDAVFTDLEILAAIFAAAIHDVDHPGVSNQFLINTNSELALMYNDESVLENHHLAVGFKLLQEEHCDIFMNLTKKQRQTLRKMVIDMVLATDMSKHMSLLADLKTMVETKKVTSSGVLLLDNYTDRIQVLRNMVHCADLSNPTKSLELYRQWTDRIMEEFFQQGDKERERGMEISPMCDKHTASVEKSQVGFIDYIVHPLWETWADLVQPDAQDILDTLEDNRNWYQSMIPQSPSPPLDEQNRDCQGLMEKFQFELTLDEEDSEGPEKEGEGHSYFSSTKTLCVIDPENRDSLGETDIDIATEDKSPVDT

Row | Compound | inhibition at 1 µM [%]
1 | Cc1noc(C2CCN(c3nc4c(c(N[C@@H](CO)C(C)C)n3)[S+]([O-])CC4)CC2)n1 (stereo partly shown) [Example 23] | 85
2 | Cc1noc(C2CCN(c3nc4c(c(N[C@H]5CCC(=O)N(C)C5)n3)[S+]([O-])CC4)CC2)n1 (stereo partly shown) [Example 53] | 96
3 | [O-][S+]1CCc2nc(N3CCC(c4cccc(O)c4)CC3)nc(NC3(CO)CC3)c21 (stereo not shown) [Example 32] | 96
4 | [O-][S+]1CCc2nc(N3CCC(c4c[nH]cn4)CC3)nc(Nc3cccc(F)c3)c21 (stereo not shown) [Example 72] | 95
5 | [O-][S+]1CCc2nc(N3CCC(c4cc5ccccc5o4)CC3)nc(NC3CCOCC3)c21 (stereo not shown) [Example 126] | 96
6 | CC(C)[C@H](CO)Nc1nc(N2CCC(c3c[nH]cn3)CC2)nc2c1[S+]([O-])CC2 (stereo partly shown) [Example 13] | 71
7 | Cc1cccc(C2CCN(c3nc4c(c(NC5(CO)CC5)n3)[S+]([O-])CC4)CC2)c1 (stereo not shown) [Example 8] | 93
8 | CS(=O)(=O)N1CC2(CCN(c3nc4c(c(Nc5cccc(F)c5)n3)[S+]([O-])CC4)CC2)c2ccccc21 (stereo not shown) [Example 74] | 95
9 | COc1ccc(C2CCN(c3nc4c(c(NC5(CO)CC5)n3)[S+]([O-])CC4)CC2)cc1 (stereo not shown) [Example 101] | 94
10 | [O-][S+]1CCc2nc(N3CCC(c4nnc(-c5ccc(F)cc5)o4)CC3)nc(NC3(CO)CC3)c21 (stereo not shown) [Example 112] | 95
11 | CS(=O)(=O)N1CC2(CCN(c3nc4c(c(NC5(CO)CC5)n3)[S+]([O-])CC4)CC2)c2ccccc21 (stereo not shown) [Example 30] | 89
12 | CCc1[nH]c2ccc(F)cc2c1C1CCN(c2nc3c(c(N[C@@H](CO)C(C)C)n2)[S+]([O-])CC3)CC1 (stereo partly drawn) [Example 22, (R)-2-{2-[4-(2-Ethyl-5-Fluoro-1H-Indol-3-Yl)-Piperidin-1-Yl]-5-Oxo-6,7-Dihydro-5H-5λ^4-Thieno[3,2-d]Pyrimidin-4-Ylamino}-3-Methylbutan-1-Ol] | 86
13 | CC(C)[C@H](CO)Nc1nc(N2CCC(c3cc(-c4ccco4)n[nH]3)CC2)nc2c1[S+]([O-])CC2 (stereo partly drawn) [Example 161, (R)-2-{2-[4-(5-Furan-2-Yl-2H-Pyrazol-3-Yl)-Piperidin-1-Yl]-5-Oxo-6,7-Dihydro-5H-5λ^4-Thieno[3,2-d]Pyrimidin-4-Ylamino}-3-Methylbutan-1-Ol Trifluoroacetate] | 94
14 | COC(=O)c1ccc(C2CCN(c3nc4c(c(N[C@@H](CO)C(C)C)n3)[S+]([O-])CC4)CC2)cc1 (stereo partly shown) [Example 150] | 94
15 | CC(C)[C@H](CO)Nc1nc(N2CCC3(CC2)OC(=O)Nc2ccccc23)nc2c1[S+]([O-])CC2 (stereo partly shown) [Example 21] | 83
16 | N#Cc1ccc(C2CCN(c3nc4c(c(NC5CCOCC5)n3)[S+]([O-])CC4)CC2)cc1 (stereo not shown) [Example 64] | 96
17 | CN1C(=O)Nc2ccccc2C12CCN(c1nc3c(c(Nc4cccc(F)c4)n1)[S+]([O-])CC3)CC2 (stereo not shown) [Example 73, 1-(4-(3-fluorophenylamino)-5-oxo-6,7-dihydro-5H-5λ^4-thieno[3,2-d]pyrimidin-2-yl)-3′-methyl-1′H-spiro[piperidin-4,4′-quinazolin]-2′(3′H)-one] | 94
18 | [O-][S+]1CCc2nc(N3CCC(c4cccc(Cl)c4)CC3)nc(NC3CCOCC3)c21 (stereo not shown) [Example 69] | 93
19 | [O-][S+]1CCc2nc(N3CCC(c4cccc(O)c4)CC3)nc(NC3CCOCC3)c21 (stereo not shown) [Example 61] | 95
20 | [O-][S+]1CCc2nc(N3CCC(c4cccc(F)c4)CC3)nc(NC3CCOCC3)c21 (stereo not shown) [Example 86] | 94

Same assay, conditions: test substance 1 μM; one-hour incubation with [H3]-cAMP at 30° C.

Row | Compound | inhibition at 1 µM [%]
21 | CN1C[C@@H](Nc2nc(N3CCC(C(=O)N4CCOCC4)(c4ccccc4)CC3)nc3c2[S+]([O-])CC3)CCC1=O (stereo partly shown) [Example 252, 1-Methyl-5-{2-[4-(Morpholine-4-Carbonyl)-4-Phenyl Piperidin-1-Yl]-5-Oxo-6,7-Dihydro-5H-5λ^4-Thieno[3,2-d]Pyrimidin-4-Ylamino}-Piperidin-2-One] | 92
22 | [O-][S+]1CCc2nc(N3CCC(O)(c4ccc(Cl)cc4)CC3)nc(NC3CCOCC3)c21 (stereo not shown) [Example 288] | 89
23 | [O-][S+]1CCc2nc(N3CCC(COCc4ccccc4)(c4ccc(Cl)cc4)CC3)nc(NC3(CO)CC3)c21 (stereo not shown) [Example 309] | 92
24 | N#Cc1ccc(OC2CCN(c3nc4c(c(NC5CCOCC5)n3)[S+]([O-])CC4)CC2)cc1 (stereo not shown) [Example 321] | 93
25 | [O-][S+]1CCc2nc(N3CCC(OCc4ccccc4)(c4ccc(Cl)cc4)CC3)nc(NC3CCOCC3)c21 (stereo not shown) [Example 319] | 91
26 | COCC1(c2ccc(Cl)cc2)CCN(c2nc3c(c(NC4CCOCC4)n2)[S+]([O-])CC3)CC1 (stereo not shown) [Example 302] | 91
27 | Cc1cn(C)nc1CN(C)C(=O)c1cccc(C2CCN(c3nc4c(c(NC5CCOCC5)n3)[S+]([O-])CC4)CC2)c1 (stereo not shown) [Example 258] | 93
28 | NC1CC1Nc1nc(N2CCC(c3ccc(Cl)cc3)CC2)nc2c1[S+]([O-])CC2 (stereo not shown) [Example 233, N-{2-[4-(4-Chlorophenyl)-Piperidin-1-Yl]-5-Oxo-6,7-Dihydro-5H-5λ^4-Thieno[3,2-d]Pyrimidin-4-Yl}-Cyclopropan-1,2-Diamine] | 93
29 | CN1C[C@@H](Nc2nc(N3CCC(CNS(C)(=O)=O)(c4ccccc4)CC3)nc3c2[S+]([O-])CC3)CCC1=O (stereo partly shown) [Example 253, N-{1-[4-(1-Methyl-6-Oxo-Piperidin-3-Ylamino)-5-Oxo-6,7-Dihydro-5H-5λ^4-Thieno[3,2-d]Pyrimidin-2-Yl]-4-Phenylpiperidin-4-Ylmethyl}-Methanesulphonamide] | 92
30 | O=C(c1ccc(C2CCN(c3nc4c(c(NC5CCOCC5)n3)[S+]([O-])CC4)CC2)cc1)N(C1CCOCC1)C1CC1 (stereo not shown) [Example 225] | 89
31 | Cc1oc(C2CCN(c3nc4c(c(NC5(CO)CC5)n3)[S+]([O-])CC4)CC2)nc1-c1ccccc1 (stereo not shown) [Example 277] | 96
32 | CN1C[C@@H](Nc2nc(N3CCC(c4n[nH]c5ccccc45)CC3)nc3c2[S+]([O-])CC3)CCC1=O (stereo partly shown) [Example 219] | 82
33 | [O-][S+]1CCc2nc(N3CCC(CO)(c4ccc(Cl)cc4)CC3)nc(Nc3cccc(F)c3)c21 (stereo not shown) [Example 291] | 89
34 | COC1(c2ccc(Cl)cc2)CCN(c2nc3c(c(Nc4cccc(F)c4)n2)[S+]([O-])CC3)CC1 (stereo not shown) [Example 316] | 92
35 | [O-][S+]1CCc2nc(N3CCC(OCc4ccccc4)CC3)nc(NC3CCOCC3)c21 (stereo not shown) [Example 172] | 91
36 | CC(=O)N(C)CC1(c2ccccc2)CCN(c2nc3c(c(N[C@H]4CCC(=O)N(C)C4)n2)[S+]([O-])CC3)CC1 (stereo partly shown) [Example 274, N-methyl-N-{1-[4-(1-methyl-6-oxo-piperidin-3-ylamino)-5-oxo-6,7-dihydro-5H-5λ^4-thieno[3,2-d]pyrimidin-2-yl]-4-phenylpiperidin-4-ylmethyl}-acetamide] | 94
37 | CC(C)(O)C1(Nc2nc(N3CCC(c4ccc(Cl)cc4)CC3)nc3c2[S+]([O-])CC3)CC1 (stereo not shown) [Example 185, 2-(1-{2-[4-(4-chlorophenyl)-piperidin-1-yl]-5-oxo-6,7-dihydro-5H-5λ^4-thieno[3,2-d]pyrimidin-4-ylamino}-cyclopropyl)-propan-2-ol] | 94
38 | O=C(c1ccc(F)cc1)C1(c2ccc(F)cc2)CCN(c2nc3c(c(NC4(CO)CC4)n2)[S+]([O-])CC3)CC1 (stereo not shown) [Example 308] | 89
39 | O=C(c1ccc(F)cc1)C1(c2ccc(F)cc2)CCN(c2nc3c(c(Nc4cccc(F)c4)n2)[S+]([O-])CC3)CC1 (stereo not shown) [Example 299] | 90
40 | O=C(N1CCc2ccc(OC3CCN(c4nc5c(c(NC6CCOCC6)n4)[S+]([O-])CC5)CC3)cc2CC1)C(F)(F)F (stereo not shown) [Example 182, 2,2,2-Trifluoro-1-(7-{1-[5-Oxo-4-(Tetrahydropyran-4-Ylamino)-6,7-Dihydro-5H-5λ^4-Thieno[3,2-d]Pyrimidin-2-Yl]-Piperidin-4-Yloxy}-1,2,4,5-Tetrahydrobenzo[d]Azepin-3-Yl)-Ethanone] | 82
41 | CC(C)[C@H](CO)Nc1nc(N2CCC(c3cc(-c4cccs4)[nH]n3)CC2)nc2c1[S+]([O-])CC2 (stereo partly shown) [Example 292] | 83
42 | COCC1(c2ccc(Cl)cc2)CCN(c2nc3c(c(NC4(CO)CC4)n2)[S+]([O-])CC3)CC1 (stereo not shown) [Example 303] | 89
43 | CCN1CCc2ccc(OC3CCN(c4nc5c(c(NC6CCOCC6)n4)[S+]([O-])CC5)CC3)cc2CC1 (stereo not shown) [Example 234] | 95
44 | O=C(c1ccc(OC2CCN(c3nc4c(c(NC5CCOCC5)n3)[S+]([O-])CC4)CC2)cc1)N(C1CCOCC1)C1CC1 (stereo not shown) [Example 238] | 95
45 | O=C(C1CC1)N1CCc2ccc(OC3CCN(c4nc5c(c(NC6CCOCC6)n4)[S+]([O-])CC5)CC3)cc2CC1 (stereo not shown) [Example 214, cyclopropyl-(7-{1-[5-oxo-4-(tetrahydropyran-4-ylamino)-6,7-dihydro-5H-5λ^4-thieno[3,2-d]pyrimidin-2-yl]-piperidin-4-yloxy}-1,2,4,5-tetrahydrobenzo[d]azepin-3-yl)-methanone] | 94
46 | Cc1nn(C)c(C)c1CNC(=O)c1ccc(C2CCN(c3nc4c(c(NC5CCOCC5)n3)[S+]([O-])CC4)CC2)cc1 (stereo not shown) [Example 230] | 81
